Measurements from patent publication US8129527B2, “Analogs of dehydrophenylahistins and their therapeutic use” (Nereus Pharmacuticals, Inc., priority 2006, dated 2012).
Where two headings read alike, the source gives them in different places.

How the values were obtained:
[1] = system: HT-29 human colon tumor; experiment: HT-29 Human Colon Tumor Xenograft Model; type: in vivo
How it was run: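 Nude mice bearing s.c. trocar-implanted HT-29 fragments were grouped at 5 mm×5 mm tumours and dosed i.p.; in combinations, reference chemotherapy was given 15-30 min before compound. Caliper measurements twice weekly were converted to tumour weight as (W^2×L)/2, with study end when control tumours averaged 1000 mg.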

[2] = system: Jurkat cells; experiment: cells; type: cell-based; settings: Jurkat cells
[3] = system: MDA-231 human breast tumor; experiment: MDA-231 Human Breast Tumor Orthotopic Xenograft Model (mammary fat pad); type: in vivo, nude mice; settings: KPU-2 7.5 mg/kg ip q3dx5 with paclitaxel 16 mg/kg ip qdx5, three weeks
Description: The animals used were: female nude mice (nu/ni) (MDA-231 study) or B6D2F1 (B16-F10 studies) mice between 5 and 6 weeks of age (˜20 g, Harlan); group size was 10 mice per group unless otherwise indicated.
The cell lines used were: MDA-MB-231 human breast tumor and B16-F10 murine melanoma cells.
NPI compounds were administered as monotherapy via the intraperitoneal route at the doses indicated for the individual study; for the combination studies the selected reference chemotherapy agents were injected 15-30 min prior to the NPI compound.
Female nude mice were injected in the mammary fat pad with 2×10^6 MDA-231 cells harvested from in vitro cell culture. When the tumor size reached 5 mm×5 mm (about 14-28 days) the animals were matched into treatment and control groups. The study then proceeded as described for the HT-29 model, using paclitaxel as the standard chemotherapy agent.
In this model unless otherwise noted for the individual study, the test compounds were administered via the intraperitoneal route on Days 1, 4, 8, 11 and 15 (q3dx5); paclitaxel was administered via the intraperitoneal route on Days 1-5 (qdx5).
This model involves the placement of the human tumor tissue into the mouse mammary fat pad, a surrogate of the natural environment. In this manner the possibility of a positive effect due to a specific action on the subcutaneous vascular bed is avoided.

[4] = system: DU-145 human prostate tumor; experiment: DU-145 Human Prostate Tumor Xenograft Model; type: in vivo, nude mice; settings: KPU-2 plus taxotere, treatment Days 20-27
Description: When the tumors reached 5 mm×5 mm (at about 13-17 days) the animals were matched into treatment and control groups.
In this model unless otherwise noted for the individual study, test compounds were administered via the intraperitoneal route on Days 1, 3, 5, 8 and 11 (q3dx5); taxotere was administered intravenously on Days 1, 3 and 5 (q2dx3).

[5] = system: PC-3 prostatic adenocarcinoma cells; experiment: Tumor cytotoxicity assay, resazurin fluorescence, 48 h (Example 6); type: cell-based, human; settings: read-out: EC50 (nM) PC-3
Description: 10× concentrated serial dilutions of the two compounds were prepared in appropriate culture medium for final concentrations ranging from 2.0×10^−5 M to 2.0×10^−10 M. Ten μl volumes of the 10× serial dilutions were added to the test wells in triplicate and the plates returned to the incubator for 48 hours.
Following 48 hours of drug exposure 10 μl of 0.2 mg/ml resazurin (obtained from Sigma-Aldrich Chemical Co.) in Mg^2+, Ca^2+ free PBS was added to each well and the plates were returned to the incubator for 3-4 hours. […] Resazurin dye without cells was used to determine the background, which was subtracted from the data for all experimental wells. The data were analyzed using Prism software (GraphPad Software).
PC-3, a human prostate adenocarcinoma, was maintained in F12K complete medium (F12K medium supplemented with 10% FBS; 2 mM Glutamine; 1% HEPES; and Pen/Strep at 100 IU/ml and 100 µg/ml, respectively).

[6] = molecular target: JNK3 (rat) (Rattus norvegicus, UniProt P49187); settings: ATP 10 μM
Chain of JNK3 (rat) (P49187 whole entry): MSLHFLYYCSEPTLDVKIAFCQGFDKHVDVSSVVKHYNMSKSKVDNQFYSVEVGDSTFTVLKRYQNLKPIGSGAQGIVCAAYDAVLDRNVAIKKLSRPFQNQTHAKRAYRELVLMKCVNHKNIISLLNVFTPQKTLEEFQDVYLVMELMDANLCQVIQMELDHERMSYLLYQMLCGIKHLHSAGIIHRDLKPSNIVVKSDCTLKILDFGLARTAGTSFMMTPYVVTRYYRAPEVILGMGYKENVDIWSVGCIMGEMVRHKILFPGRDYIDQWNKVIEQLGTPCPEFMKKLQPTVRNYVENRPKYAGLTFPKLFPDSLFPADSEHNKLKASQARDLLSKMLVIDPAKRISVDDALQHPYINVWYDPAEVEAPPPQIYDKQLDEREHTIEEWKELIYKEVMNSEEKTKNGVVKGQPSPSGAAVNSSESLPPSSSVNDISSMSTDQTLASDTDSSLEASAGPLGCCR

[7] = system: MCF-7 human breast tumor; experiment: MCF-7 Human Breast Tumor Xenograft Model; type: in vivo, nude mice; settings: in combination with taxotere
How it was run: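 Female nu/nu mice (~20 g, 5–6 wk) given 21-day estrogen pellets (0.25 mg) s.c. 24 h before s.c. MCF-7 tumor fragment implantation; 9–10 mice/group. Compounds dosed i.p. (qdx5 Days 1–5, or Days 1, 2, 3, 4, 7); taxotere i.v. (Days 1, 3, 5 or 1, 3, 7), given 15–30 min before compound in combinations.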

[8] = system: P388 murine leukemia cells; experiment: Cytotoxic effect in P388 cells; type: cell-based
Text: The cytotoxic effects of phenylahistin, dehydrophenylahistin and various derivatives of dehydrophenylahistin were examined in P388 murine leukemia cells, HT-29 human colon cells, and PC-3 prostatic adenocarcinoma cells.

[9] = system: A549 human non small cell lung tumor; experiment: A549 Human Lung Tumor Xenograft Model; type: in vivo, nude mice; settings: KPU-2 7.5 mg/kg ip qdx5 with taxotere
Description: Animals used were (exceptions are indicated for individual studies): female nude mice (nu/nu) between 5 and 6 weeks of age (˜20 g, Harlan); group size was 9-10 mice per group unless otherwise indicated.
Selected novel compounds were administered as monotherapy via the intraperitoneal (i.p.) route at the doses indicated for the individual study; for the combination studies the selected reference chemotherapy agents were injected 15-30 min prior to the compound.
Saline dilutions are used to achieve the injection concentrations used for the reference compounds.
Animals were implanted s.c. by trocar with fragments of A549 tumors harvested from s.c. growing tumors in nude mice hosts. When the tumor size reached 5 mm×5 mm (about 10-17 days) the animals were matched into treatment and control groups.

[10] = system: Aspergillus fumigatus; experiment: Antifungal susceptibility testing, broth dilution (MIC/MFC); type: cell-based
How it was run: (§1)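 Tested against two isolates per species (one for C. glabrata). After MIC, fungicidal concentration determined by plating 0.1 μl from MIC and each higher concentration.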

[11] = system: Candida glabrata; experiment: as above; type: cell-based; settings: Nakaseomyces glabratus
How it was run: as §1

[12] = system: Trichophyton rubrum; experiment: as above; type: cell-based; settings: Trichophyton species
How it was run: as §1

[13] = system: Candida albicans; experiment: as above; type: cell-based
How it was run: as §1

Which “Comments (combination with CPT-11)” value ([1]; NPI compound + CPT-11 100 ip qwx3, study and dose as in the line) does the source give for `CC(C)(C)c1[nH]cnc1/C=c1\[nH]c(=O)/c(=C/c2ccccc2)[nH]c1=O` [KPU-2, tBu-dehydro-PLH] here?
The value was “Synergy”.

What about the “NPI-Compound Result TGI %” value ([1]; Study 2139, monotherapy 7.5 mg/kg ip q3dx5) of the same molecule?
The value was “No Effect”.

What about the “NPI-Compound Result TGI %” value ([1]; Study 2164, monotherapy 7.5 mg/kg ip q3dx5) of the same molecule?
The value was “No Effect”.

What about the “NPI-Compound Result TGI %” value ([1]; Study 2164, monotherapy 7.5 mg/kg ip qdx5) of the same molecule?
Its value is “No Effect”.

What about the “NPI-Compound Result TGI %” value ([1]; Study 2288, monotherapy 10→7.5 mg/kg ip q3dx5) of the same molecule?
The value was “No Effect”.

And the “Exceed NCI Criterion (TGI ≧ 58%)” value ([1]; which treatment group exceeds the criterion, NPI compound, CPT-11 100 ip qwx3 or combination, study and dose as in the line)?
The value was “Combination”.

And the “Cytotoxicity Efficacy % Cell Death” value [2]?
Its value is 94%.

And the “inhibition of tumor growth” value [3]?
Its value is “significant inhibition of tumor growth”.

What about the “apparent TGI” value [4] of the same molecule?
Its value is > 58%.

What about the EC50 ([5]; Table 2) of the same molecule?
The EC50 was 1 nM.

What about the EC50 ([5]; Table 3) of the same molecule?
The EC50 was 1 nM.

And the IC50 [6]?
The IC50 was 6800 nM.

What about the “effect on estimated tumor growth” value [7] of the same molecule?
Its value is “appeared to be the most effective”.

And the IC50 ([8]; Mus musculus, P388, read-out: IC50 (nM) P-388)?
The IC50 was 31.8 ± 5 nM.

What about the “cytotoxicity in P388 cells” value ([8]; in words) of the same molecule?
The value was “exhibited cytotoxicity in P388 cells”.

And the “TGI of the cotherapy group” value [9]?
Its value is 74.4%.

What about the MIC ([10]; A. fumigatus isolate #2) of the same molecule?
Its MIC is >16 µg/mL.

And the MIC ([10]; Aspergillus fumigatus)?
The MIC was > 16 µg/mL.

What about the MIC [11] of the same molecule?
Its MIC is > 32 µg/mL.

And the “antifungal potency compared with griseofulvin” value [12]?
The value was “equivalent in potency or in some cases more potent than griseofulvin”.

And the MIC ([13]; C. albicans 10231)?
Its MIC is >32 µg/mL.

And the MIC ([13]; Candida albicans)?
The MIC was > 32 µg/mL.
